According to ChEMBL document CHEMBL1150987, “Structure/activity relationships among photosensitizers related to pheophorbides and bacteriopheophorbides” (1992):

Legend:
Format in all cases: functional
Mus musculus [1] = experiment: In vivo antitumor activity as percent tumor response at dose of 0.3 mg/kg, 24 hours post injection of SMT-F tumor in DBA/2 mice at day 1-2
Mus musculus [2] = experiment: In vivo antitumor activity as percent tumor response at dose of 0.3 mg/kg, 24 hours post injection of SMT-F tumor in DBA/2 mice at day 30
Mus musculus [3] = experiment: In vivo antitumor activity as percent tumor response at dose of 0.3 mg/kg, 24 hours post injection of SMT-F tumor in DBA/2 mice at day 7
Mus musculus [4] = experiment: In vivo antitumor activity as percent tumor response at dose of 5.0 mg/kg, 24 hours post injection of SMT-F tumor in DBA/2 mice at day 1-2
Mus musculus [5] = experiment: In vivo antitumor activity as percent tumor response at dose of 5.0 mg/kg, 24 hours post injection of SMT-F tumor in DBA/2 mice at day 30
Mus musculus [6] = experiment: In vivo antitumor activity as percent tumor response at dose of 5.0 mg/kg, 24 hours post injection of SMT-F tumor in DBA/2 mice at day 7
Mus musculus [7] = experiment: In vivo antitumor activity as percent tumor response at dose of 5.0 mg/kg, 3 hours post injection of SMT-F tumor in DBA/2 mice at day 1-2
Mus musculus [8] = experiment: In vivo antitumor activity as percent tumor response at dose of 5.0 mg/kg, 3 hours post injection of SMT-F tumor in DBA/2 mice at day 30
Mus musculus [9] = experiment: In vivo antitumor activity as percent tumor response at dose of 5.0 mg/kg, 3 hours post injection of SMT-F tumor in DBA/2 mice at day 7
Mus musculus [10] = experiment: In vivo antitumor activity as percent tumor response at dose of 2.5 mg/kg 3h between injection and light treatment in mice at day 7
Mus musculus [11] = experiment: In vivo antitumor activity as percent tumor response at dose of 2.5 mg/kg, 24 hours post injection of SMT-F tumor in DBA/2 mice at day 1-2
Mus musculus [12] = experiment: In vivo antitumor activity as percent tumor response at dose of 2.5 mg/kg, 24 hours post injection of SMT-F tumor in DBA/2 mice at day 30
Mus musculus [13] = experiment: In vivo antitumor activity as percent tumor response at dose of 2.5 mg/kg, 24 hours post injection of SMT-F tumor in DBA/2 mice at day 7
Mus musculus [14] = experiment: In vivo antitumor activity as percent tumor response at dose of 2.5 mg/kg, 3 hours post injection of SMT-F tumor in DBA/2 mice at day 1-2
Mus musculus [15] = experiment: In vivo antitumor activity as percent tumor response at dose of 2.5 mg/kg, 3 hours post injection of SMT-F tumor in DBA/2 mice at day 30
Mus musculus [16] = experiment: In vivo antitumor activity as percent tumor response at dose of 0.3 mg/kg, 3 hours post injection of SMT-F tumor in DBA/2 mice at day 30
Mus musculus [17] = experiment: In vivo antitumor activity as percent tumor response at dose of 0.3 mg/kg, 3 hours post injection of SMT-F tumor in DBA/2 mice at day 7
Mus musculus [18] = experiment: In vivo antitumor activity as percent tumor response at dose of 0.3 mg/kg, 3 hours post injection of SMT-F tumor in DBA/2 mice at day 1-2
Mus musculus [19] = experiment: In vivo antitumor activity as percent tumor response at dose of 1.0 mg/kg, 24 hours post injection of SMT-F tumor in DBA/2 mice at day 1-2
Mus musculus [20] = experiment: In vivo antitumor activity as percent tumor response at dose of 1.0 mg/kg, 24 hours post injection of SMT-F tumor in DBA/2 mice at day 30
Mus musculus [21] = experiment: In vivo antitumor activity as percent tumor response at dose of 1.0 mg/kg, 24 hours post injection of SMT-F tumor in DBA/2 mice at day 7
Mus musculus [22] = experiment: In vivo antitumor activity as percent tumor response at dose of 0.25 mg/kg, 24 hours post injection of SMT-F tumor in DBA/2 mice at day 1-2
Mus musculus [23] = experiment: In vivo antitumor activity as percent tumor response at dose of 0.25 mg/kg, 24 hours post injection of SMT-F tumor in DBA/2 mice at day 30
Mus musculus [24] = experiment: In vivo antitumor activity as percent tumor response at dose of 0.25 mg/kg, 24 hours post injection of SMT-F tumor in DBA/2 mice at day 7

CCCCCCOCC1=C(C)c2cc3nc(c4c5[nH]c(cc6[nH]c(cc1n2)c(C)c6CC)c(C)c5C(=O)C4)[C@@H](CCC(=O)OC)[C@@H]3C was tested. Which Response (Mus musculus [1]) did it give?
The Response was 100%.

What about the Response (Mus musculus [2]) of the same compound?
The Response was 0%.

And the Response (Mus musculus [3])?
The Response was 33%.

How did the Response (Mus musculus [4]) turn out when C=Cc1c(C)c2cc3nc(c4c5nc(cc6[nH]c(cc1[nH]2)c(C)c6CC)C(C)=C5C(=S)C4)[C@@H](CCC(=O)OC)[C@@H]3C was run?
Its Response is 0%.

What about the Response (Mus musculus [5]) of the same compound?
The Response was 0%.

What about the Response (Mus musculus [6]) of the same compound?
The Response was 0%.

And the Response (Mus musculus [7])?
The Response was 100%.

And the Response (Mus musculus [8])?
Its Response is 80%.

And the Response (Mus musculus [9])?
Its Response is 100%.

How did the Response (Mus musculus [4]) turn out when CCc1c(C)c2cc3[nH]c(cc4nc(c(CC(=O)OC)c5nc(cc1[nH]2)C(C)=C5C(=O)OC)[C@@H](CCC(=O)OC)[C@@H]4C)c(C)c3C=O was run?
The Response was 0%.

And the Response (Mus musculus [5])?
The Response was 0%.

And the Response (Mus musculus [6])?
Its Response is 0%.

Which Response (Mus musculus [10]) does the source give for CCc1c(C)c2cc3[nH]c(cc4nc(c5c6nc(cc1[nH]2)C(C)=C6C(=O)C5)[C@@H](CCC(=O)OC)[C@@H]4C)c(C)c3C=O here?
Its Response is 67%.

And the Response (Mus musculus [11])?
Its Response is 0%.

What about the Response (Mus musculus [12]) of the same compound?
The Response was 0%.

What about the Response (Mus musculus [13]) of the same compound?
The Response was 0%.

What about the Response (Mus musculus [14]) of the same compound?
Its Response is 67%.

What about the Response (Mus musculus [15]) of the same compound?
Its Response is 0%.

What does the source list for CCCCCCOC(C)c1c(C)c2cc3nc(c4c5nc(cc6[nH]c(cc1[nH]2)[C@@](C)(O)[C@]6(O)CC)C(C)=C5C(=O)C4)[C@@H](CCC(=O)OC)[C@@H]3C (stereo partly drawn)?
Response (Mus musculus [16]): 0%; Response (Mus musculus [17]): 0%; Response (Mus musculus [18]): 0%

With CCc1c(C)c2cc3[nH]c(cc4nc(c5c6nc(cc1[nH]2)C(C)=C6C(=O)[C@@H]5C(=O)OC)[C@@H](CCC(=O)OC)[C@@H]4C)c(C)c3C=O as the compound, how does the Response (Mus musculus [4]) read?
The Response was 80%.

What about the Response (Mus musculus [5]) of the same compound?
Its Response is 0%.

What about the Response (Mus musculus [6]) of the same compound?
The Response was 60%.

Which Response (Mus musculus [1]) does the source give for CCCCCCOC(C)C1=C(C)c2cc3nc(c(CC(=O)OC)c4[nH]c(cc5[nH]c(cc1n2)c(C)c5CC)c(C)c4C(=O)OC)[C@@H](CCC(=O)OC)[C@@H]3C (stereo partly drawn) here?
The Response was 100%.

What about the Response (Mus musculus [2]) of the same compound?
The Response was 0%.

And the Response (Mus musculus [19])?
Its Response is 100%.

And the Response (Mus musculus [20])?
The Response was 0%.

What about the Response (Mus musculus [21]) of the same compound?
The Response was 75%.

What about the Response (Mus musculus [3]) of the same compound?
Its Response is 0%.

How did the Response (Mus musculus [16]) turn out when CCc1c(C)c2cc3nc(c4c5nc(cc6[nH]c(cc1[nH]2)[C@@](C)(O)[C@]6(O)CC)C(C)=C5C(=O)C4)[C@@H](CCC(=O)OC)[C@@H]3C was run?
Its Response is 0%.

What about the Response (Mus musculus [17]) of the same compound?
The Response was 0%.

What about the Response (Mus musculus [18]) of the same compound?
Its Response is 0%.

For CCCCCCOC(C)C1=C(C)c2cc3nc(c4c5[nH]c(cc6[nH]c(cc1n2)c(C)c6CC)c(C)c5C(=O)[C@@H]4C(=O)OC)[C@@H](CCC(=O)OC)[C@@H]3C (stereo partly drawn), which Response (Mus musculus [1]) is on record?
The Response was 100%.

What about the Response (Mus musculus [2]) of the same compound?
The Response was 0%.

What about the Response (Mus musculus [16]) of the same compound?
The Response was 20%.

What about the Response (Mus musculus [17]) of the same compound?
The Response was 100%.

What about the Response (Mus musculus [19]) of the same compound?
Its Response is 100%.

What about the Response (Mus musculus [20]) of the same compound?
Its Response is 50%.

And the Response (Mus musculus [21])?
The Response was 100%.

And the Response (Mus musculus [3])?
Its Response is 90%.

What about the Response (Mus musculus [18]) of the same compound?
Its Response is 100%.

Which Response (Mus musculus [22]) does the source give for CCCCCCOC(C)C1=C(C)c2cc3nc(c4c5[nH]c(cc6[nH]c(cc1n2)c(C)c6CC)c(C)c5C(=O)C4)[C@@H](CCC(=O)OC)[C@@H]3C (stereo partly drawn) here?
Its Response is 100%.

And the Response (Mus musculus [23])?
The Response was 35%.

And the Response (Mus musculus [24])?
The Response was 85%.

What about the Response (Mus musculus [1]) of the same compound?
The Response was 100%.

What about the Response (Mus musculus [2]) of the same compound?
Its Response is 50%.

What about the Response (Mus musculus [3]) of the same compound?
The Response was 100%.
